According to PMC7482797 (2020):

How the values were obtained:
[1] = tested on: BCL-2 GQ (DNA, G4) CGGGCGCGGGAGGAATTGGGCGGGAGC; assay: CD melting; conditions: 100 mM KCl; 20 mM PBS, pH 7.4; 2 µM GQ, TGP18 at 1:1 (2 µM)
[2] = tested on: TEL22 GQ (DNA, G4) AGGGTTAGGGTTAGGGTTAGGG; assay: fluorescence lifetime (TCSPC); conditions: qualitative; lifetime 1.6 ns against 0.26 ns free; three-fold excess DNA over titration end point
[3] = tested on: BCL-2 GQ (DNA, G4) CGGGCGCGGGAGGAATTGGGCGGGAGC; assay: fluorescence titration, 640 nm; conditions: 100 mM KCl or NaCl (so in the source); 20 mM PBS, pH 7.4; 1 µM TGP18; one-site fit
[4] = tested on: c-KIT2 GQ (DNA, G4) CGGGCGGGCGCGAGGGAGGGG; assay: fluorescence titration, 640 nm; conditions: 100 mM KCl or NaCl (so in the source); 20 mM PBS, pH 7.4; 1 µM TGP18; one-site fit
[5] = tested on: C-MYC GQ (DNA, G4) TGGGGAGGGTGGGGAGGGTGGGGAAGG; assay: fluorescence titration, 640 nm; conditions: 100 mM KCl or NaCl (so in the source); 20 mM PBS, pH 7.4; 1 µM TGP18; one-site fit
[6] = tested on: VEGF GQ (DNA, G4) GGGGGCGGGCCGGGGGCGGGGTCCCGGCGGGGCGGAG; assay: fluorescence titration, 640 nm; conditions: 100 mM KCl or NaCl (so in the source); 20 mM PBS, pH 7.4; 1 µM TGP18; one-site fit
[7] = tested on: KRAS GQ (DNA, G4) GGGAGGGAGGGAAGGAGGGAGGGAGGGA; assay: fluorescence titration, 640 nm; conditions: 100 mM KCl or NaCl (so in the source); 20 mM PBS, pH 7.4; 1 µM TGP18; one-site fit

CCN(CC)c1ccc2cc(C=Cc3ccc4ccc5ccc(C)nc5c4[n+]3C)c(=O)oc2c1
ΔTm [1]: 8 °C | binding [2]: yes | KD [3]: 728 ± 34 nM | KD [4]: 5.5 ± 0.23 µM | KD [5]: 1.5 ± 0.19 µM | KD [6]: 2.12 ± 0.35 µM | KD [7]: 1.3 ± 0.13 µM
